By melting point is commonly meant the temperature of the solid-liquid transition.

For the compound `COc1ccc2c(c1OCC#N)CCCC2`, the melting point lay in the range of 50 to 51 °C.
Next, `CON=C(c1ccccc1O)n1ccnc1`: 104 °C; `CC1CN(c2c(Cl)nc3ccc(F)cc3c2C(N)=O)CC(C)N1` (stereo not given): 169 to 170 °C; `CCCCCCCCCCOc1ccc(C(=O)OCC(=O)OC)cc1`: 30 to 32 °C.
Next, `COC(=O)CC1CCN(CCC=C(c2ccccc2)c2ccccc2)C1` (stereo not given): 95.5 to 97.5 °C; `CCn1c(COC(=O)NC(C)=O)nc(C(C)C)c1Sc1cc(Cl)cc(Cl)c1`: 163 to 164 °C.
Compound `c1cn(Cc2ccc3[nH]c(C4CC4)nc3c2)cn1` registered a melting point of 184 °C.
For the compound `CC1CC(=O)c2cc(OCc3ccccc3)cnc2C1` (stereo not given), the melting point lay in the range of 80.5 to 81.5 °C.
Next, `O=C(C=Cc1cc(O)c(O)c(C(F)(F)F)c1)c1ccccc1`: 196 to 201 °C; `CC(=O)N[C@@H](Cc1ccc(-c2cc3ccccc3c3ccccc23)cc1)C(=O)O`: 128 to 132 °C; `O=C1C2CCCCC2C(=O)N1CCS` (stereo not given): 79 to 80 °C.
Next, `Fc1ccc(N2CCN(Cc3cn4cc(Cl)ccc4n3)CC2)cc1`: 130 to 131 °C; `COC(=O)CCCc1cc2nc(Cl)ccc2n1S(=O)(=O)c1ccc2ncccc2c1`: 133 to 141 °C; `CC(C)OC(=O)Nc1ccc(O)c(Cl)c1`: 89 to 90 °C.
`COC[C@H]1CN(c2ccc(OCCC3(O)CCCCC3)cc2)C(=O)O1` yielded a melting point of 87 °C.
Take `CCCCC1(N(C)C)CCC2(CC1)c1[nH]c3ccccc3c1CCN2C(=O)NCC` (stereo not given): the melting point fell in the range of 182 to 184 °C.
As for `CCN(CC)C(=O)n1ccc(S(=O)(=O)c2c(F)cccc2F)n1`, the figure is 83 to 83.5 °C; as for `CNC(=O)N1CCc2cc(OC)c(OC)c(O)c2C1Cc1cccc(OC)c1` (stereo not given), 75 to 80 °C; as for `COc1ccc2c(Cc3c(Cl)cncc3Cl)nnc(Cl)c2c1`, 156 to 166 °C.
As for `CCCCCCCCCCCCCCOc1ccc(C(=O)NCCc2ccccn2)cc1`, the figure is 80 to 82 °C.
As for `CON(C)C(=O)CC1CN=C(c2cc3cccc(N(C)S(=O)(=O)c4cccs4)c3[nH]2)S1` (stereo not given), the figure is 153 to 154 °C; as for `O=C(O)COc1cc2c(c(Cl)c1Cl)C(=O)C(c1ccccc1)(C1CCCC1)C2` (stereo not given), 184 to 186 °C.
With `NC(=O)c1ccc(CCN2CC=C(c3c[nH]c(-c4ccc(F)cc4)c3-c3ccncc3)CC2)cc1`, the melting point is 202 to 204 °C.
Next, `O=C(C1=Cc2ccccc2Oc2ccccc21)N1CCCCC1`: 127 to 128 °C; `O=C(Nc1cccc([N+](=O)[O-])c1)C(F)(F)C(F)(F)F`: 111 to 113 °C.
As for `Cc1ccc(C(=S)CCCCCC#N)cc1`, the figure is 49.5 to 51 °C; as for `N#Cc1ncccc1Oc1ccccc1Cl`, 90 to 92 °C; as for `CC[C@H](C1CC1)n1cc(Cl)nc(N2CCc3cc(OC)cc(C)c32)c1=O`, 156 to 158 °C.
Next, `O=C(O)C=CC(=S)c1ccc(-c2ccccc2)cc1`: 157 to 159 °C.
For the compound `COc1ccc(S(=O)(=O)C(CCCCc2ccccc2)C(=O)O)cc1OC` (stereo not given), the melting point was in the range of 114 to 116 °C.
`CCCCCSC1=NC(c2cccc([N+](=O)[O-])c2)C(C(=O)OCC)=C(C)N1` (stereo not given) registered a melting point of 104 to 105 °C.
Next, `COc1ccc(C=O)cc1C(C)(C)C`: 52 °C; `O=C(O)CCON=c1c2nccc3cccc(c32)n2cccc12`: 250 °C; `CCOc1c(OC)cc(N)c2ncccc12`: 129 to 131 °C.
As for `CCn1cnc2c(Nc3cccc(Cl)c3)nc(NCCN)nc21`, the figure is 79 to 80 °C; as for `CCOc1ccc(CN2C(=O)C(C)(c3ccccc3Cl)c3cc(Cl)ccc32)c(OC)c1` (stereo not given), 124 °C; as for `CC1=C(CNC(=O)NC(C)C)c2cc(F)ccc2/C1=C\c1ccc(S(C)(=O)=O)cc1`, 217 °C.
Next, `c1cn2nc(N3CCNCC3)ccc2n1`: 122 to 123 °C; `N#CC1=C(c2cccs2)Nc2n[nH]cc2C1c1ccccc1Cl` (stereo not given): 174 °C; `O=C(Nc1noc2ccccc12)N1CCN(c2nc(N3CCCCC3)ns2)CC1`: 214 to 215 °C.
On to `CCOC(=O)c1cc2c(cn1)[nH]c1cccc(C=O)c12`, for which the melting point fell in the range of 273 to 276 °C.
Compound `O=C(O)CCCCCc1nc2ccccc2o1` showed a melting point of 82 °C.
Next, `CC1CN(C(P(=O)(O)O)P(=O)(O)O)CC(C)S1` (stereo not given): 219 to 220 °C; `COc1ccc2cccc3c2c1C(CCNC(C)=O)CC3` (stereo not given): 98 °C.
Regarding `Cn1nc(-c2c(NCc3ccccn3)nc(N)nc2-c2ccccc2)ccc1=O`, the melting point is 248 to 250 °C.
As for `O=Cc1nn(-c2ccccc2)c2c1CCC2`, the figure is 108 to 109 °C; as for `Oc1ccc(-c2cc3cc(F)ccc3o2)cc1`, 202 to 204 °C; as for `CC(=O)c1cc(N=C=O)cc(C(C)=O)c1`, 71 °C.
Next, `O=C(c1ccc(F)cc1)C1CCN(CCCn2c(=S)[nH]c3ccccc3c2=O)CC1`: 200 °C; `CN1CCN(S(=O)(=O)CCCOc2ccc3ncnn3n2)CC1`: 140 to 141 °C; `Oc1cc2c3cc(O)c(O)cc3n(Cc3ccccc3)c2cc1O`: 266 to 271 °C.
Next, `CC(=NO)c1ccc(N)c(C(=NO)c2ccccc2F)c1`: 165 °C.
`Cc1c(C(=O)c2cnn(C(C)C)c2O)ccc2sc(=O)n(C)c12` had a melting point of 175 to 177 °C.
Next, `CC1(C)COC(=S)N(Cc2ccccc2NS(=O)(=O)C(F)(F)F)C1`: 130 °C; `CC(C)Cc1ccc(COc2ccc(CC(=O)O)cc2Cl)cc1`: 97 to 99 °C; `Cc1cc(C(N)=O)ccc1NC1CCN(Cc2ccccc2)CC1`: 156 to 158 °C.
Next, `Cc1cnc2c(Br)cnn2c1-c1cccnc1`: 166 to 168 °C.
As for `COc1ccc(C(=O)C=CN(C)C)cc1`, the figure is 82 to 85 °C; as for `NS(=O)(=O)c1cc2ccc(O)cc2[nH]1`, 194 to 195 °C; as for `CCN1OCC(=O)N(c2cc(Cl)ccc2C)C1=S`, 119 to 121 °C.
`C=CCc1cc2c(c(CC=C)c1O)CCC(=O)N2c1ccc(OC)cc1` yielded a melting point of 154 °C.
Next, `NS(=O)(=O)c1cc(F)c(C(F)(F)F)cc1NC(=O)c1ccccc1`: 223 °C.
As for `NC1CSC(c2ccsc2)CNC1=O` (stereo not given), the figure is 190 to 191 °C; as for `COC(=O)c1c([N+](=O)[O-])cccc1S(=O)(=O)NC(C)(C)C`, 89 to 91 °C; as for `CCC(=O)NCC(C)(C)c1ccc(C(=O)Nc2cn3cc(Cl)ccc3n2)cc1`, 225 to 227 °C.
The compound `O=C1C=CC(=O)c2c1cccc2[N+](=O)[O-]` had a melting point of 161 °C.
With `CC1(C)CC(=O)C1(Br)CC(Cl)(Cl)Cl` (stereo not given), the melting point lay within 46 to 49 °C.
As for `Cc1cc2c(cc1OCCn1ccnc1)CCCC2=O`, the figure is 118 to 120 °C; as for `CCOC(=O)c1cnc2occ(Br)c2c1`, 107 to 108 °C; as for `Fc1cccc(F)c1-c1nc(C(F)(F)F)n(-c2ccccc2C(F)(F)F)n1`, 90 °C.
As for `Nc1ncc2c(n1)N(c1ccccc1)C(=O)N(c1c(Cl)cccc1Cl)C2`, the figure is above 300 °C; as for `CN(C)c1ccc(S(=O)(=O)N2CCCC2=O)cc1`, 202 to 204 °C.
As for `Clc1ccc2[nH]c(-c3ccccc3)cc2c1`, the figure is 195 to 196 °C; as for `Cc1nc(-c2ccc3c(c2)COC(N[C@@H]2CCc4ccccc42)=N3)no1`, 138 °C.
The compound `COC(=O)c1ccc(-c2c[nH]c(-c3ccc4c(c3)C(C)(C)CCC4(C)C)c2)cc1` showed a melting point of 174 to 175 °C.
Next, `CC(CC(=O)O)c1ccc(O)cc1O` (stereo not given): 92 to 94 °C; `Cc1nc2c(OCc3c(Cl)ccc(S(=O)(=O)N4CCC[C@H]4C(=O)NCCCN)c3Cl)cccn2c1Br`: 75 °C; `CCCCCCCCCCCCCCCCCCNCC(O)COc1ccc(Nc2ccccc2)cc1` (stereo not given): 81 to 86 °C.
Next, `Cc1ccc(S(=O)(=O)OCCN2C(=O)c3cccc4cc5ccccc5c(c34)C2=O)cc1`: 240 °C; `CC(=O)c1ccc2c(c1)Sc1ccccc1O2`: 112 °C.
As for `O=C(O)C(O)(c1cccs1)c1cccs1`, the figure is 84 °C; as for `CC1(O)OC(=O)C=C1c1ccccc1` (stereo not given), 105 to 107 °C.
For `COC(=O)COc1cccc(-c2ccc(Cl)cc2)n1`, the melting point fell in the range of 60 to 63 °C.
As for `CCc1cccc(CC(=O)O)c1OCCCc1cn(-c2ncc(C(F)(F)F)cc2Cl)nc1C(C)C`, the figure is 93 to 95 °C.
As for `Cn1nc2c(sc3ccccc32)c1N`, the figure is 233 °C; as for `CCSc1nc(-c2ccc(OC)cc2)c(-c2ccc(OC)cc2)[nH]1`, 108 to 109 °C; as for `Cc1ccccc1CC(=NC#N)NC(NC(=O)Cc1ccc2cccnc2c1)C(C)(C)C` (stereo not given), 165 to 166 °C.
Compound `CCOC(=O)N1CCN(C2=Nc3ccccc3Oc3ccc(Cl)cc32)CC1` registered a melting point of 122 °C.
As for `O=c1[nH]c(=O)n(C2OC(CBr)C(O)C2O)cc1C=CBr` (stereo not given), the figure is 201 °C.
In the case of `COc1ccc(N2CCCCN(CCCCNC(=O)c3ccc(NC(=O)c4ccc(Cl)cc4)cc3)CC2)c(OC)c1`, the melting point stood at 229 °C.
Next, `O=S(CCCCl)Cc1ccccc1` (stereo not given): 70 to 71 °C; `O=C(O)c1cccc(-n2cnc3cc(-c4ccoc4)ccc32)c1`: 272 to 274 °C.
Next, `Cc1[nH]c(-c2ccccc2)nc1C(C)O` (stereo not given): 189 to 190 °C.
Next, `COCCOc1ccccc1OCC(O)CN1C(C)CCCC1C` (stereo not given): 92 to 94 °C; `O=C1c2cccc(F)c2-n2c1nc1ccccc1c2=O`: 264 to 267 °C.

Values taken from a melting point compilation (Tetko et al.; mined from patent text by program, amines drawn as free bases though some values may be those of a salt).
